Usually EC50 stands for the concentration that produces a half-maximal response. As a reminder, the Emax is the maximal effect, on the per cent scale that the assay sets.

In the test the target is T1, human GR (Homo sapiens, UniProt P04150).
T1 construct: naturally expresses the human GR; endogenous in cells
T1 sequence (P04150 1-777): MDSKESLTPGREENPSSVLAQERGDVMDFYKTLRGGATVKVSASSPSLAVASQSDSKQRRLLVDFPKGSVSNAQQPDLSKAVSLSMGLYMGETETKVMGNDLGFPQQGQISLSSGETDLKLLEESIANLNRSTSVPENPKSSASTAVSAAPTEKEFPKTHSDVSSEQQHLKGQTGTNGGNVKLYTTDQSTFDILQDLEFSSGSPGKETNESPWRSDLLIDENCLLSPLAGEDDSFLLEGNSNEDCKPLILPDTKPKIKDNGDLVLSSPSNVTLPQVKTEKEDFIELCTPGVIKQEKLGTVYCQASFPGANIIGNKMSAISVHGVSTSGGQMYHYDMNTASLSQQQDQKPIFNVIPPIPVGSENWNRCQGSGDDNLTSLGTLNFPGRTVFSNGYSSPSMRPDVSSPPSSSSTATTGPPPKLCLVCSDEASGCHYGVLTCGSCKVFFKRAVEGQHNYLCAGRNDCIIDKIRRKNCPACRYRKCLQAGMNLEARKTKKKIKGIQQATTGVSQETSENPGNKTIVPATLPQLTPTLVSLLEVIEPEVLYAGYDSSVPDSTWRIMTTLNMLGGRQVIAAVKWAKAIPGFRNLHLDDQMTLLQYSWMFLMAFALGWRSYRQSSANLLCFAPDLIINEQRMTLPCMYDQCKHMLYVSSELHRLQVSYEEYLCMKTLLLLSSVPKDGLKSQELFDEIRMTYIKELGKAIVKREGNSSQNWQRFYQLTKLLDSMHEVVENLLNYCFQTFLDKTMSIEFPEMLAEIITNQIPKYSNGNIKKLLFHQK
In words: Transrepression assay (GITAR), TNFα-β-lactamase reporter in U937 cells. It is filed as cell-based. As to conditions: for EC50: IP = inflection point; for Emax: U-937, U937 cells. The source says: Transrepression Assay (GITAR)
This assay assesses the ability of test compounds to control transcription from the TNFα-β-lactamase reporter gene in U937 cells, a human myelomonocytic leukemia cell line that naturally expresses the human GR. The assay measures compound dependent-repression of the TNFa promoter linked to a reporter gene.
The human U937 cells that had been stablely transfected with the TNF-a promoter driving ˜-lactamase are used for this assay. U937 cells contain an endogenous glucocorticoid receptor (GR). Cells are maintained in RPMI 1640 Growth medium (GibcoCat#11875-093) containing 25 mM HEPES, 10% FBS, 2 mM L-Glutamine, 1 mM Sodium pyruvate, 25 μg/ml Gentamicin (Gibed Cat#1571 0-064), 1:1000 2-Mercaptoethanol (Gibco Cat#21985-023) and 0.8 mg/ml G418 (Gibco Cat#10131-027). The density of the cells in the flask needs to be about 1×10^6-3×10^6/ml at the time of harvest. Usually, the cells are split to 1.2˜1.4×10^5/ml (1:10) 3 days prior to the assay. 50,000 cells/well are plated in 96 well black-walled plates the day of assay. Test compounds are added 10 J.lL/well, and cells are incubated at 37° C. for 30˜45 min. For assaying compounds, first dilute 1:10 in DMSO to make 1 mM, then further dilute 1:100 in medium to make 10× stock prior to adding to the cells. Add 50 ng/ml PMA (Sigma, cat#P8139) 10 μL/well to a final concentration 5 ng/ml, and 1 μg/ml LPS (Sigma, cat#L4130) 10 μL/well to a final concentration 100 ng/ml. Incubate cells at 370 C overnight for −18 hr. PMA is stored frozen as […] in DMSO. Dilute 1:10 in DMSO for a working stock of 10 μg/ml and store at −20° C. For assaying, dilute the 10 μg/ml working stock 1:200 in medium to make a 10× solution (50 ng/ml). Store frozen LPS at 1 mg/ml in PBS, dilute 1:1000 in medium to make 10×μg/ml) for the assay. Add 6× loading buffer (CCF2-AM) 20 μL/well, and incubate at room temperature for 70-90 min. […] The activity repressed by 100 nM dexamethasone alone is set as 100% activity.

Setting [1] is: activity repressed by 100 nM dexamethasone alone set as 100%.

Molecules are shown by their SMILES.

Where the note is “U937 cells”, `CC[C@]12Cc3cnn(-c4ccc(F)cc4)c3C=C1CC[C@@]2(O)CC1OC(=O)c2ccccc21` (stereo partly drawn) [Example 71, 3-{[(4aS,5R)-4a-Ethyl-1-(4-fluorophenyl)-5-hydroxy-1,4,4a,5,6,7-hexahydrocyclopenta[f]indazol-5-yl]methyl}-2-benzofuran-1(3H)-one] displayed an EC50 of 65 nM. For the same compound, the Emax under setting [1] amounted to 74%.
As for `NC(=O)c1c(C2CC2)ccnc1CC[C@]1(O)CCC2=Cc3c(cnn3-c3ccc(F)cc3)C[C@@]21C1CC1` [Example 49, 4-Cyclopropyl-2-{2-[(4aR,5R)-4a-cyclopropyl-1-(4-fluorophenyl)-5-hydroxy-1,4,4a,5,6,7-hexahydrocyclopenta[f]indazol-5-yl]ethyl}pyridine-3-carboxamide], the EC50 (U937 cells) turned out to be 12 nM. Under setting [1], this compound displayed an Emax of 78%.
For the compound `COc1ccnc(CC[C@]2(O)CCC3=Cc4c(cnn4-c4ccc(F)cc4)C[C@@]32C2CC2)c1C(F)C(N)=O` (stereo partly drawn) [Example 66, 2-(2-{2-[(4aR,5R)-4a-Cyclopropyl-1-(4-fluorophenyl)-5-hydroxy-1,4,4a,5,6,7-hexahydrocyclopenta[f]indazol-5-yl]ethyl}-4-methoxypyridin-3-yl)-2-fluoroacetamide], the EC50 (U937 cells) was 12 nM. The compound further displayed an Emax under setting [1] of 76%.
The compound `CC[C@]12Cc3cnn(-c4ccc(F)cc4)c3C=C1CC[C@@]2(O)CCc1cc(C)ccn1` [Example 33, (4aS,5R)-4a-Ethyl-1-(4-fluorophenyl)-5-[2-(4-methylpyridin-2-yl)ethyl]-1,4,4a,5,6,7-hexahydrocyclopenta[f]indazol-5-ol] displayed an EC50 (U937 cells) of 84 nM. The same compound registered an Emax under setting [1] of 82%.
As for `CC[C@]12Cc3cnn(-c4ccccc4)c3C=C1CC[C@@]2(O)CC(O)c1ccccn1` (single isomer, unassigned) [Example 67a], for the setting “U937 cells”, the EC50 was 217 nM. Under setting [1], this compound yielded an Emax of 54%.
On the same counts, the results for `CC[C@]12Cc3cnn(-c4cccnc4)c3C=C1CC[C@@]2(O)CCc1cccc(F)c1C#N` [Example 10, 2-{2-[(4aS,5R)-4a-Ethyl-5-hydroxy-1-(pyridin-3-yl)-1,4,4a,5,6,7-hexahydrocyclopenta[f]indazol-5-yl]ethyl}-6-fluorobenzonitrile] are 113 nM and 64%.
Turning to `NC(=O)C(O)c1ccccc1CC[C@]1(O)CCC2=Cc3c(cnn3-c3ccc(F)cc3)C[C@@]21C1CC1` (single isomer, unassigned) [Example 3b], where the note is “U937 cells”, the EC50 is 68 nM. This compound also came in with an Emax under setting [1] of 85%.
For `OC(C[C@]1(O)CCC2=Cc3c(cnn3-c3ccc(F)cc3)C[C@@]21C1CC1)c1ccccn1` (stereo partly drawn) [Example 78, (4aR,5R)-4a-Cyclopropyl-1-(4-fluorophenyl)-5-[2-hydroxy-2-(pyridin-2-yl)ethyl]-1,4,4a,5,6,7-hexahydrocyclopenta[f]indazol-5-ol], for the setting “U937 cells”, the response was half-maximal at 213 nM (EC50). Under setting [1], this compound showed an Emax of 49%.
The compound `CC[C@]12Cc3cnn(-c4ccc(F)cc4)c3C=C1CC[C@@]2(O)CC(O)c1ccccn1` (stereo partly drawn) [Example 68, (4aS,5R)-4a-Ethyl-1-(4-fluorophenyl)-5-[2-hydroxy-2-(pyridin-2-yl)ethyl]-1,4,4a,5,6,7-hexahydrocyclopenta[f]indazol-5-ol] gave an EC50 (U937 cells) of 18 nM. This compound also gave an Emax under setting [1] of 71%.
Taken in the same sequence, the figures for `O=C(NC1(CO)CC1)c1ccccc1CC[C@]1(O)CCC2=Cc3c(cnn3-c3ccc(F)cc3)C[C@@]21C1CC1` [Example 46, 2-{2-[(4aR,5R)-4a-Cyclopropyl-1-(4-fluorophenyl)-5-hydroxy-1,4,4a,5,6,7-hexahydrocyclopenta[f]indazol-5-yl]ethyl}-N-[1-(hydroxymethyl)cyclopropyl]benzamide] were 7 nM and 90%.
Take `CC[C@]12Cc3cnn(-c4ccc(F)cc4)c3C=C1CC[C@@]2(O)CCc1ncccc1F` [Example 17, (4aS,5R)-4a-Ethyl-1-(4-fluorophenyl)-5-[2-(3-fluoropyridin-2-yl)ethyl]-1,4,4a,5,6,7-hexahydrocyclopenta[f]indazol-5-ol]: a half-maximal effect (U937 cells) (EC50) was put at 44 nM. Under setting [1], this compound returned an Emax of 89%.
`NC(=O)c1ccccc1CC[C@]1(O)CCC2=Cc3c(cnn3-c3ccccc3)C[C@@]21C1CC1` [Example 29, 2-{2-[(4aR,5R)-4a-Cyclopropyl-5-hydroxy-1-phenyl-1,4,4a,5,6,7-hexahydrocyclopenta[f]indazol-5-yl]ethyl}benzamide] yielded an EC50 (U937 cells) of 47 nM. Under setting [1], this compound came in with an Emax of 69%.
Regarding `CC[C@]12Cc3cnn(-c4ccc(F)cc4)c3C=C1CC[C@@]2(O)CCc1ccccc1CCC(N)=O` [Example 22, 3-(2-{2-[(4aS,5R)-4a-Ethyl-1-(4-fluorophenyl)-5-hydroxy-1,4,4a,5,6,7-hexahydrocyclopenta[f]indazol-5-yl]ethyl}phenyl)propanamide], under “U937 cells”, it took 148 nM to reach a half-maximal effect (EC50). The Emax under setting [1] was 89%.
On the same counts, the results for `CC[C@]12Cc3cnn(-c4ccccc4)c3C=C1CC[C@@]2(O)CC(O)c1cc(C#N)ccn1` (stereo partly drawn) [Example 75, 2-{2-[(4aS,5R)-4a-Ethyl-5-hydroxy-1-phenyl-1,4,4a,5,6,7-hexahydrocyclopenta[f]indazol-5-yl]-1-hydroxyethyl}pyridine-4-carbonitrile] are 235 nM and 67%.
`CC[C@]12Cc3cnn(-c4ccc(F)cc4)c3C=C1CC[C@@]2(O)CCc1ccccn1` [Example 16, (4aS,5R)-4a-Ethyl-1-(4-fluorophenyl)-5-[2-(pyridin-2-yl)ethyl]-1,4,4a,5,6,7-hexahydrocyclopenta[f]indazol-5-ol] returned an EC50 (U937 cells) of 93 nM. For the same compound, the Emax under setting [1] is 79%.
On to `CC[C@]12Cc3cnn(-c4ccccc4)c3C=C1CC[C@@]2(O)CC(O)c1ccccn1` (single isomer, unassigned) [Example 67b], for which, for the setting “U937 cells”, the EC50 worked out at 277 nM. The “Transrepression U937 Cells GITAR Emax (%)” value (U937 cells, activity repressed by 100 nM dexamethasone alone set as 100%) is on record as 44%.
On to `CC[C@]12Cc3cnn(-c4ccc(F)cc4)c3C=C1CC[C@@]2(O)CCc1nccc(OC)c1C(F)C(N)=O` (stereo partly drawn) [Example 65, 2-(2-{2-[(4aS,5R)-4a-Ethyl-1-(4-fluorophenyl)-5-hydroxy-1,4,4a,5,6,7-hexahydrocyclopenta[f]indazol-5-yl]ethyl}-4-methoxypyridin-3-yl)-2-fluoroacetamide], for which the EC50 (U937 cells) is 195 nM. Further, the Emax under setting [1] worked out at 63%.
Compound `O=C(NCCO)c1ccccc1CC[C@]1(O)CCC2=Cc3c(cnn3-c3ccc(F)cc3)C[C@@]21C1CC1` [Example 50, 2-{2-[(4aR,5R)-4a-Cyclopropyl-1-(4-fluorophenyl)-5-hydroxy-1,4,4a,5,6,7-hexahydrocyclopenta[f]indazol-5-yl]ethyl}-N-(2-hydroxyethyl)benzamide] displayed an EC50 (U937 cells) of 9 nM. Besides, the Emax under setting [1] is 88%.
`CC[C@]12Cc3cnn(-c4ccc(F)cc4)c3C=C1CC[C@@]2(O)CC(O)c1cc(C#N)ccn1` (stereo partly drawn) [Example 72, 2-{2-[(4aS,5R)-4a-Ethyl-1-(4-fluorophenyl)-5-hydroxy-1,4,4a,5,6,7-hexahydrocyclopenta[f]indazol-5-yl]-1-hydroxyethyl}pyridine-4-carbonitrile] registered an EC50 (U937 cells) of 228 nM. The Emax under setting [1] amounted to 51%.

The values above are taken from patent US20120214847A1, “2-[1-PHENYL-5-HYDROXY-4a-SUBSTITUTED-HEXAHYDROCYCLOPENTA[F]INDAZOL-5-YL]ETHYL PHENYL DERIVATIVES AS GLUCOCORTICOID RECEPTOR LIGANDS” (Merck Sharp & Dohme Corp., priority 2009, published 2012).
